Source: US20060166900A1, “Salt of morphine-6-glucuronide” (CeNeS Limited, priority 2002, published 2006)

Columns and labels:
Type in all cases: physicochemical
[1] = Stability of M6G salts at room temperature over 6 years, HPLC; conditions: for Assay M6G corr.: content calculated as M6G derivative
[2] = Visual appearance on storage (Example 3)
Summary of the method: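 Aliquots (900 mg) kept at 2-8 °C beforehand were stored in argon-flushed brown opaque HDPE bottles at 25 °C/60% RH, 40 °C/75% RH and 60 °C. Visual appearance was assessed at set time points.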

[3] = Water content by Karl Fisher analysis on storage (Example 3)
Summary of the method: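 900 mg aliquots were held in argon-flushed brown opaque HDPE bottles at 25 °C/60% RH, 40 °C/75% RH and 60 °C. At each time point, water content (% w/w) was determined in duplicate on about 100 mg of equilibrated material by Karl Fischer titration.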

[4] = Colour of solution by visible spectrophotometry on storage (Example 3); conditions: 5% w/v solution in water
Summary of the method: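 5% w/v aqueous solution, absorbance at 420 nm in a 1 cm silica cell. Samples were stored in argon-flushed brown opaque HDPE bottles at 25° C./60% RH, 40° C./75% RH and 60° C.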

[5] = Stability indicating HPLC assay and related substances on storage (Example 3)

Compound: CN1CC[C@]23c4c5ccc(O)c4O[C@H]2[C@@H](O[C@@H]2O[C@H](C(=O)O)[C@@H](O)[C@H](O)[C@H]2O)C=C[C@H]3[C@H]1C5.Cl [Morphine-6-glucuronide hydrochloride]
- HN-33177 ([1]; 0 years): 0.3%
- HN-75083 ([1]; 0 years): <0.1%
- Unknown related substances (sum area %) ([1]; 0 years): <0.1 area %
- Assay M6G corr. ([1]; 0 years): 88.7%
- HN-67002 ([1]; 6 years at ambient temperature): 1.3%
- HN-67003 ([1]; 6 years at ambient temperature): 2.1%
- Morphine ([1]; 6 years at ambient temperature): 0.2%
- Unknown related substances (sum area %) ([1]; 6 years at ambient temperature): 9.2 area %
- Assay M6G corr. ([1]; 6 years at ambient temperature): 74.8%
- HN-33177 ([1]; 6 years at ambient temperature, hydrochloride): 0.2%
- HN-33177 ([1]; 6 years at ambient temperature, listed as M6G.HCl, hydrochloride): remained unchanged
- peaks present in the chromatogram that cannot be identified by retention time ([1]; almost 6 years at room temperature): 17
- Appearance ([2]; 1 month, 25° C./60% RH): White crystalline powder
- Appearance ([2]; 1 month, 40° C./75% RH): Slightly yellow crystalline powder
- Appearance ([2]; 1 month, 60° C.): Pale yellow crystalline powder
- Appearance ([2]; 3 months, 25° C./60% RH, hydrochloride): White crystalline powder
- Appearance ([2]; 3 months, 25° C./60% RH, listed as hydrochloride, hydrochloride): white crystalline solids
- Appearance ([2]; 3 months, 40° C./75% RH): Yellow crystalline powder
- Appearance ([2]; Initial): White crystalline powder
- Moisture ([3]; 1 month, 25° C./60% RH): 5.10 % w/w
- Moisture ([3]; 1 month, 40° C./75% RH): 6.24 % w/w
- Moisture ([3]; 1 month, 60° C.): 4.44 % w/w
- Moisture ([3]; 3 months, 25° C./60% RH): 6.06 % w/w
- Moisture ([3]; 3 months, 40° C./75% RH): 9.02 % w/w
- Moisture ([3]; Initial): 4.31 % w/w
- Colour ([4]; 1 month, 25° C./60% RH): 0.147 Abs@420 nm
- Colour ([4]; 1 month, 40° C./75% RH): 0.444 Abs@420 nm
- Colour ([4]; 1 month, 60° C.): 1.183 Abs@420 nm
- Colour ([4]; 3 months, 25° C./60% RH): 0.253 Abs@420 nm
- Colour ([4]; 3 months, 40° C./75% RH): 2.107 Abs@420 nm
- Colour ([4]; Initial): 0.059 Abs@420 nm
- Known Related Substances HN33177 ([5]; 1 month, 25° C./60% RH): 0.63%
- Known Related Substances HN67003 ([5]; 1 month, 25° C./60% RH): 0.38%
- Known Related Substances HN75076 ([5]; 1 month, 25° C./60% RH): 0.04%
- Known Related Substances HN75083 ([5]; 1 month, 25° C./60% RH): 0.03%
- M6G Assay, Anhydrous basis ([5]; 1 month, 25° C./60% RH): 92.03 % w/w
- M6G Assay, As is basis ([5]; 1 month, 25° C./60% RH): 79.21 % w/w
- M6G Assay, Corrected for the salt form ([5]; 1 month, 25° C./60% RH): 99.30 % w/w
- Total Known ([5]; 1 month, 25° C./60% RH): 1.08%
- Total Related Substances ([5]; 1 month, 25° C./60% RH): 2.41%
- Total Unknown ([5]; 1 month, 25° C./60% RH): 1.33%
- Known Related Substances HN33177 ([5]; 1 month, 40° C./75% RH): 0.41%
- Known Related Substances HN67003 ([5]; 1 month, 40° C./75% RH): 3.01%
- Known Related Substances HN75076 ([5]; 1 month, 40° C./75% RH): 0.34%
- Known Related Substances HN75083 ([5]; 1 month, 40° C./75% RH): 0.07%
- Known Related Substances Morphine ([5]; 1 month, 40° C./75% RH): 0.08%
- M6G Assay, Anhydrous basis ([5]; 1 month, 40° C./75% RH): 81.39 % w/w
- M6G Assay, As is basis ([5]; 1 month, 40° C./75% RH): 69.13 % w/w
- M6G Assay, Corrected for the salt form ([5]; 1 month, 40° C./75% RH): 87.81 % w/w
- Total Known ([5]; 1 month, 40° C./75% RH): 3.91%
- Total Related Substances ([5]; 1 month, 40° C./75% RH): 15.16%
- Total Unknown ([5]; 1 month, 40° C./75% RH): 11.25%
- Known Related Substances HN33177 ([5]; 1 month, 60° C.): 0.12%
- Known Related Substances HN67003 ([5]; 1 month, 60° C.): 3.55%
- Known Related Substances HN75076 ([5]; 1 month, 60° C.): 0.55%
- Known Related Substances HN75083 ([5]; 1 month, 60° C.): 0.03%
- Known Related Substances Morphine ([5]; 1 month, 60° C.): 0.46%
- M6G Assay, Anhydrous basis ([5]; 1 month, 60° C.): 75.78 % w/w
- M6G Assay, As is basis ([5]; 1 month, 60° C.): 65.73 % w/w
- M6G Assay, Corrected for the salt form ([5]; 1 month, 60° C.): 81.76 % w/w
- Total Known ([5]; 1 month, 60° C.): 4.71%
- Total Related Substances ([5]; 1 month, 60° C.): 20.94%
- Total Unknown ([5]; 1 month, 60° C.): 16.23%
- Known Related Substances HN33177 ([5]; 3 months, 25° C./60% RH): 0.50%
- Known Related Substances HN67003 ([5]; 3 months, 25° C./60% RH): 1.31%
- Known Related Substances HN75083 ([5]; 3 months, 25° C./60% RH): 0.03%
- Known Related Substances Morphine ([5]; 3 months, 25° C./60% RH): 0.21%
- M6G Assay, Anhydrous basis ([5]; 3 months, 25° C./60% RH): 87.71 % w/w
- M6G Assay, As is basis ([5]; 3 months, 25° C./60% RH): 75.48 % w/w
- M6G Assay, Corrected for the salt form ([5]; 3 months, 25° C./60% RH): 94.64 % w/w
- Total Known ([5]; 3 months, 25° C./60% RH): 2.05%
- Total Related Substances ([5]; 3 months, 25° C./60% RH): 9.52%
- Total Unknown ([5]; 3 months, 25° C./60% RH): 7.47%
- decrease in assay compared to initial ([5]; 3 months, 25° C./60% RH): around 6%
- Known Related Substances HN33177 ([5]; 3 months, 40° C./75% RH): 0.07%
- Known Related Substances HN67003 ([5]; 3 months, 40° C./75% RH): 3.71%
- Known Related Substances HN75076 ([5]; 3 months, 40° C./75% RH): 1.67%
- Known Related Substances HN75083 ([5]; 3 months, 40° C./75% RH): 0.01%
- Known Related Substances Morphine ([5]; 3 months, 40° C./75% RH): 1.55%
- M6G Assay, Anhydrous basis ([5]; 3 months, 40° C./75% RH): 61.41 % w/w
- M6G Assay, As is basis ([5]; 3 months, 40° C./75% RH): 51.00 % w/w
- M6G Assay, Corrected for the salt form ([5]; 3 months, 40° C./75% RH): 66.26 % w/w
- Total Known ([5]; 3 months, 40° C./75% RH): 7.01%
- Total Unknown ([5]; 3 months, 40° C./75% RH): 51.57%
- drop in assay compared to the initial values ([5]; 3 months, 40° C./75% RH): approx 34%
- Total Related Substances ([5]; 3 months, 40° C./75% RH, hydrochloride): 58.58%
- Total Related Substances ([5]; 3 months, 40° C./75% RH, listed as hydrochloride, hydrochloride): around 54.5%
- stability assessment ([5]; 40° C./75% RH over 3 months (base also 60° C. over 1 month)): least stable
- Known Related Substances HN33177 ([5]; Initial): 0.63%
- Known Related Substances HN67003 ([5]; Initial): 0.07%
- Known Related Substances HN75076 ([5]; Initial): 0.01%
- Known Related Substances HN75083 ([5]; Initial): 0.06%
- M6G Assay, Anhydrous basis ([5]; Initial): 93.28 % w/w
- M6G Assay, As is basis ([5]; Initial): 81.63 % w/w
- M6G Assay, Corrected for the salt form ([5]; Initial): 100.65 % w/w
- Total Known ([5]; Initial): 0.77%
- Total Related Substances ([5]; Initial): 1.24%
- Total Unknown ([5]; Initial): 0.47%
- overall stability comparison ([5]; overall review of Example 3 data): least stable
